Experimental data: patent publication US20090258942A1 (priority 2008, published 2009)

Assays:
[1] = test system: breast cancer; conditions: among 5129 women in the treatment group; median follow-up 40 months; cited from earlier work
[2] = test system: TNF-RE tkLuc; assay: TNF-RE tkLuc reporter, effect of antiestrogens; type: cell-based; conditions: in contrast to E2
From the text: (§1) Light emission at 560 nm is conveniently quantified in optical density units (O.D.560 nm).

[3] = biological target: estrogen receptor beta (ERβ) (Homo sapiens, UniProt Q92731); conditions: added to (a), (b), (c) or (d); FIGS. 4a-4d
[4] = biological target: ERβ (Homo sapiens, UniProt Q92731); conditions: in the presence of ERβ
From the text: as §1

[5] = test system: estrogen receptor-positive breast cancer; conditions: five years of therapy; cited from earlier work
[6] = test system: primary invasive breast cancer; conditions: women at high risk for breast cancer; cited from earlier work
[7] = test system: MCF-7 breast cancer xenografts; assay: MCF-7 kidney capsule xenografts; conditions: 28 days; E2 0.5 mg/h, Calycosin 2.5 mg/h in saline; FIG. 5
Protocol: MCF-7 xenografts were introduced into nude mouse kidneys. Mice were randomized to three treatment groups. […] Each treatment group was treated for 28 days, after which mice were euthanized and the kidneys containing the xenografts were excised, photographed and weighed.

Sequence of ERβ (Q92731 whole entry): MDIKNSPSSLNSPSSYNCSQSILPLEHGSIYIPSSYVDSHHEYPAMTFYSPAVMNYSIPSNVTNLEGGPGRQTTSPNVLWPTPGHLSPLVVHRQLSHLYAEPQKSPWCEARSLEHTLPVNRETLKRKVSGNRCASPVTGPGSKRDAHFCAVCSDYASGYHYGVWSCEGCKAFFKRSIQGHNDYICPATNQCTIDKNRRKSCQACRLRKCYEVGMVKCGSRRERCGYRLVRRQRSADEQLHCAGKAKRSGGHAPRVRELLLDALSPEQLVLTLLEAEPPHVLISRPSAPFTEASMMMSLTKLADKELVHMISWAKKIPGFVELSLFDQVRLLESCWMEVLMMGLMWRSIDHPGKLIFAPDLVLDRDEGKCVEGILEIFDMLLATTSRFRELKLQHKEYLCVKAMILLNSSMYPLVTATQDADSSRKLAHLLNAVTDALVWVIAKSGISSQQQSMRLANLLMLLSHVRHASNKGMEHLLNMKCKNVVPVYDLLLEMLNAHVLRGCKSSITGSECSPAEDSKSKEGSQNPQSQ
Sequence of estrogen receptor beta (ERβ) (Q92731 whole entry): as above

O=C(c1ccc(OCCN2CCCCC2)cc1)c1c(-c2ccc(O)cc2)sc2cc(O)ccc12 [raloxifene]
cases of breast cancer [1]: 13 cases
activation of TNF-RE tkLuc [2]: 2 fold
effect of addition on ERE activation by compounds (a)-(d) through ERβ [3]: reduced this activation

C[C@]12CC[C@@H]3c4ccc(O)cc4C[C@@H](CCCCCCCCC[S+]([O-])CCCC(F)(F)C(F)(F)F)[C@H]3[C@@H]1CC[C@@H]2O (stereo partly shown) [ICI 182780]
activation of TNF-RE tkLuc [2]: 2 fold

C[C@]12CC[C@@H]3c4ccc(O)cc4CC[C@H]3[C@@H]1CC[C@@H]2O [E2, estradiol]
repression of TNF-α activation of TNF-RE tkLuc [4]: 60-80%

CC/C(=C(\c1ccccc1)c1ccc(OCCN(C)C)cc1)c1ccccc1 [tamoxifen]
reduction of mortality from breast cancer [5]: 22%
reduction of the risk of recurrences [5]: 42%
reduction of the risk of primary invasive breast cancer [6]: 49%
activation of TNF-RE tkLuc [2]: 2 fold

COc1ccc(-c2coc3cc(O)ccc3c2=O)cc1O [Calycosin, 3-(4-methoxy-3-hydroxyphenyl)-7-hydroxycoumarin]
growth of MCF-7 kidney capsule xenografts as compared to control [7]: inhibits the growth of MCF-7 breast cancer xenografts
